Test results from PMC9072250 (Acta Pharmaceutica Sinica. B, 2021).
Structures can show the parent of a compound that is named as a salt.

Tests used:
[1] = test system: monocrotaline-induced PAH rat model; assay: Monocrotaline-induced PAH rat model; type: in vivo, Wister rats; conditions: PAH rats, 10.0 mg/kg (po) daily for 3 weeks, positive control
PDE6A = PDE6A versus PDE5A1; cited from earlier work

In the case of `CCCc1nn(C)c2c(=O)[nH]c(-c3cc(S(=O)(=O)N4CCN(C)CC4)ccc3OCC)nc12` [sildenafil citrate], the “mean pulmonary artery pressure (mPAP)” value [1] is reported as “decreased significantly”, the “right ventricle hypertrophy index (RVHI%)” value [1] is reported as “decreased significantly” and the “wall thickness percentage (WT%)” value [1] is reported as “decreased significantly”.

For `CCCc1nn(C)c2c(=O)[nH]c(-c3cc(S(=O)(=O)N4CCN(C)CC4)ccc3OCC)nc12` [sildenafil], the “IC50 potency against PDE6A relative to PDE5A1” value (PDE6A) is listed as 5 fold.
